Assay results as given in patent US7105529B2, “Substituted oxindole derivatives as protein tyrosine and as protein serine/threonine kinase inhibitors and compositions and methods of treating chemotherapy and radiation therapy side effects” (SmithKline Beecham Corporation, priority 1997, dated 2006).

Tests used:
[1] = test system: MDA-MB468 (human breast carcinoma cell line); assay: MTT assay, MDA MB468; type: cell-based
Protocol: Compounds are tested for their ability to inhibit cell proliferation and cell viability. The metabolic conversion of 3-(4,5-dimethylthiazol-2-yl)-2,5-diphenyltetrazolium bromide (MTT, Sigma #M2128) to a reduced form is a commonly used measure of cellular viability. Following is the procedure: Cells are maintained in 75 cm^2 tissue culture flasks until ready for use. The cells are grown and plated for the assay in Dulbecco's modified Eagle's media (DMEM) containing 10% fetal bovine serum. For example, the following cell lines can be used: a) human foreskin fibroblasts (HFF); b) HT29 (human colon carcinoma cell line); c) MDA-MB468 (human breast carcinoma cell line); d) RKO (human colon adenocarcinoma cell line); e) SW620 (human colon carcinoma cell line); f A549 (human lung carcinoma cell line); and g) MIA PACA (human pancreatic carcinoma cell line). Cells are maintained at 37° C. in 10% CO2, 90% humidified air. Cells are plated in 96-well tissue culture plates at the densities listed below. 100 μL of cell suspension is added to each well of the 96-well plate except the top row of the plate which contains no cells and serves as a reference for the spectrophotometer. [table] […] Quantitation of metabolic reduction of MTT in each plate is performed by reading optical density at 570 nm wavelength on a Molecular Devices UVmax microplate reader.

[2] = test system: HDF normal diploid fibroblast cells; assay: FACS assay (cell death), HDF; type: cell-based; details: 50% cell death, 72 h
Protocol: These assays allow determination of both cell death and changes in cell cycle profile in cells following treatment of the compound. The assay is performend as follows: • 1. Cells are incubated in DMEM to which 10% FCS has been added in a humidified incubator at 37° C. and 5% by volume of CO2 in air. The cells are innoculated in 6-well plates at a density of 0.5–5×10^5 cells per well. • 2. The test compound is added in serial dilutions 24–36 h after plating in 0.5% DMSO. The plates are then incubated a further 72 h in the presence of the compound. During this time, cells in control cultures undergo at least three cell divisions. • 3. After incubation, the media is collected and cells are harvested by trypsinization. The cells and media are pooled and pelleted by centrifugation. • 4. The cell pellet is fixed in a final volume of 3 mL of 50% ice cold MeOH and incubated for a minimum of 30 min at −20° C. • 5. The cells are pelleted by centrifugation and resuspended in 0.5 mL PBS containing 1%FCS, […] Propidium Iodide (PI) and 5 mg/mL RNase A and incubated 30 min at 37° C. in the dark. • 6. The samples are analysed by flow cytometry using the relative incorporation of PI as a measure of DNA content of each cell. The % Dead cells is recorded as % of events with less than 2N DNA. […] HDF are normal diploid fibroblast cells. RKO are colon adenocarcinoma cells and MES/SA are ovarian carcinoma cells.

[3] = target: CDK1 (Homo sapiens, UniProt P06493); assay: CDK1 substrate phosphorylation assay; type: biochemical
Protocol: Cyclin dependent protein kinase assays utilized the peptides Biotin-aminohexyl-[…] and Biotin-aminohexyl-[…]-NH2 as phosphoryl group acceptors. CDK1 and CDK2 were both expressed utilizing a baculovirus expression system and were partially purified to comprise 20–80% of total protein, with no detectable competing reactions present. Typically, assays were performed by incubating either enzyme (0.2–10 nM), with and without inhibitor, one of the two peptide substrates (1–10 nM), [γ-^32P]ATP (1–20 nM), and 10–20 mM Mg^2+ for periods of time generally within the range 10–120 min. Reactions were terminated with 0.2–2 volumes of either 20% acetic acid or 50–100 mM EDTA buffered to pH 7 (substrate consumption <20%). The buffer employed in enzyme assays was either 30 mM HEPES 7.4 containing 0.15 M NaCl and 5% DMSO, the buffer 50 mM MOPS 7.0 containing 0.15 M NaCl and 5% DMSO, or the buffer 100 mM HEPES pH 7.5 containing 0.1 mg/mL BSA and 5% DMSO. Inhibitors were diluted in 100% DMSO prior to addition into the assay. […]

CDK1, sequence (P06493 whole entry): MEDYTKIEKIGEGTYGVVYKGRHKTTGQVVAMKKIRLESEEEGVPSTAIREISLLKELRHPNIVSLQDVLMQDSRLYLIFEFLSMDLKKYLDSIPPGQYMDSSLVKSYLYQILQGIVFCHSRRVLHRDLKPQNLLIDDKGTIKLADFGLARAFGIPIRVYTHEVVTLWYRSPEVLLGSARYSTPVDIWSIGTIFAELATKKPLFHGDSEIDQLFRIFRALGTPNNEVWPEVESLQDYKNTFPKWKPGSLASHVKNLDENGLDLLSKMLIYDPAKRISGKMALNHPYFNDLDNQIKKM
CDK1, sequence (P14635 whole entry partner): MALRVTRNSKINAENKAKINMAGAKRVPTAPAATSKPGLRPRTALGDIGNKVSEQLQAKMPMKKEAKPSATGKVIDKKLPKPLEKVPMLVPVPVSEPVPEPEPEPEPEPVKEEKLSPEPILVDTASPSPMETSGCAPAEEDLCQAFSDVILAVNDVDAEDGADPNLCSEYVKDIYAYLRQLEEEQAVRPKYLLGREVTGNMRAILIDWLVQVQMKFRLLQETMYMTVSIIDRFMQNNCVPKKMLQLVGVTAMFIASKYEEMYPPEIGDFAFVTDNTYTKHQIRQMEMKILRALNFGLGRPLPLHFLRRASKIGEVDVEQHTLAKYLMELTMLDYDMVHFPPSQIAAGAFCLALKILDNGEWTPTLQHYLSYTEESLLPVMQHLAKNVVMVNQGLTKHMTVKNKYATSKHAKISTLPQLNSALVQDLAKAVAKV

Row | Compound | IC50 ([1]; Homo sapiens, MDA-MB-468, 72 h) [nM] | IC50 [2] [nM] | IC50 [3] [nM] | IC50 ([1]; 72 h) [nM]
1 | COC(=O)c1ccc2c(c1)/C(=C/Nc1ccc(S(N)(=O)=O)cc1)C(=O)N2 [Example 27] | 1100 to 5000 | > 5000 |  | 
2 | NS(=O)(=O)c1ccc(NN=C2C(=O)Nc3ccc(-c4cnco4)cc32)cc1 [Example 36] |  | > 5000 | 1 to 10 | 
3 | O=C1Nc2ccc3ncsc3c2C1=CNc1ccc(S(=O)(=O)NCc2ccncc2)cc1 [Example 104, 4-[(7-Oxo-6,7-dihydro-1-thia-3,6-diaza-as-indacen-8-ylidenemethyl)amino]-N-pyridinyl-4-yl-methyl benzenesulfonamide] |  |  | 11 to 50 | 1100 to 5000
